This data set can be described thus: Solution-based crystallization study, in situ UV/Vis probe. The class given is physicochemical. The note with it: absence of polymer (control); pH 6.8 buffer, start about 80 μg/mL, FIG. 13-A. As for the experimental part:
Several polymers (Kollidon VA64, HPMC E5, HPMC K3, PVP K30, and Vitamin E TPGS) were evaluated for their effectiveness in inhibiting or delaying precipitation of the free acid of Compound A through a solution-based mechanism. About 0.05 mL of a highly concentrated solution of Compound A monosodium salt monohydrate dissolved in dimethyl sulfoxide (16 mg/mL on a free acid equivalent weight basis) was added to 10 mL of pH 6.8 sodium phosphate buffer (50 mM phosphate with ionic strength adjusted to 0.155 M with sodium chloride) containing one of the polymers at one of […] different concentrations (0% (control), 0.001%, 0.01%, and 0.1% (weight polymer/volume buffer %)) to provide a supersaturated Compound A solution (about 80 μg/mL on a free acid equivalent weight basis). The supersaturated solution was continuously stirred at 300 rpm at ambient temperatures (about 26° C.) and the solution concentration was monitored for 30 minutes by an in situ UV/Vis dip probe (μDISS Profiler™, pION Inc, Woburn, Mass. 01801, USA) using an external standard.

Consider `COc1c(-c2ccc3cc(NS(C)(=O)=O)ccc3c2)cc(-n2ccc(=O)[nH]c2=O)cc1C(C)(C)C` [Compound A, N-(6-(3-tert-butyl-5-(2,4-dioxo-3,4-dihydropyrimidin-1(2H)-yl)-2-methoxyphenyl)naphthalen-2-yl)methanesulfonamide], for which the “concentration of Compound A in the solution after decrease” value was “about 20 μg/mL”.

The values are drawn from US10201542B2, “Formulations of pyrimidinedione derivative compounds” (AbbVie Inc., priority 2012, dated 2019).
